# Data as given in patent US6919306B2, “Method of skin care” (Yaizu Suisankagaku Industry Co. Ltd., priority 1999, dated 2005).
# Marks after values point to notes of the source that are not given here.
# Columns and labels:
# [1] = test system: oil and fat content of skin; experiment: Skin oil and fat content by Sebumeter SM810; type: in vivo, human; settings: for Oil and fat content, Below left eye: NAG 1,000 mg/day oral
# Description: (§1) To 22 females usually having a tendency of xeroderma and rough skin (average age: 25.5±10.7), a double blind long-term ingestion study was carried out in the following manners provided that a […] were given to a control group.
# (§2) NAG-containing tablets-administered group (NAG group, n=11): Tablets prepared similarly as in Example 1 as described below (NAG amount: 200 mg/tablet), were ingested at a rate of 5 tablets/day (NAG 1,000 mg/day, as a daily dose).
# (§3) The ingestion period was 8 weeks in each group. The inspection was in principle carried out just before the start of ingestion, 4 weeks after the start of ingestion, and just before the completion of ingestion (8 weeks after the start of ingestion).
# The oil and fat content was measured by using Sebumeter SM810 (manufactured by Courage+Khazaka Electronic Gmbh). In use of this apparatus, a special tape which absorbs only the oil and fat content is attached to the measurement site for 30 seconds and the oil and fat content is measured by the change of light transmittance of the tape. This apparatus is known not to be affected by humidity, etc.
# Measurement sites were 1 cm below the left eye, medial part of left upper arm (3 cm above the elbow), and poll (3 cm below spinous process of neck). With respect to the oil and fat content, since most subjects were scored at 0 at the left upper arm and the poll, only the site below the left eye was measured from the 2nd inspection.
# In order to keep the environments for the measurements as equal as possible, a room having its internal conditions adjusted to be constant was prepared before the measurements (room temperature: 18 to 20° C., humidity: 45 to 60%), and the subjects were asked to keep in rest in this room for at least 30 minutes. Further, with respect to the makeup at the measurement site, it was in principle prohibited to put on makeup from 60 minutes before the inspection.
# [2] = Heat treatment stability (coloration or decomposition); type: physicochemical; settings: pH of 2 to 8 at 100° C. for 1 hour
# Text: In the present invention, as a carrier for the skin care agent, foods such as confectioneries, powdered soups, dairy products and beverages, may, for example, be mentioned. As such foods, specifically, gum, candies, tabletted confectioneries, chocolate, jelly, cookies, snacks, corn potage soup, consomme soup, milk, pudding, yogurt, ice cream, lactic acid beverages, alcohol beverages, vitamin beverages, mineral beverages, coffee beverages, near water, nutrition drinks, and the like, may be mentioned.
# skin surface = experiment: Microscopic three-dimensional skin surface analysis (VISIOSCAN); type: in vivo, human; set-up: key to SEsc (Ideal value: Lowest value), Below left eye / SEsc (Ideal value: Lowest value), Left upper arm: SEsc = I/(Nx×Ny)×100; lower = more moist, less scaling; key to SEsm (Ideal value: Lowest value), Left upper arm / SEsm (Ideal value: Lowest value), Below left eye: SEsm = (Co−Cu)×(Fmx−Fmy)×K; lower = smoother skin; SWw (Ideal value: Lowest value), Below left eye / SWw (Ideal value: Lowest value), Left upper arm: scale not given here; settings: for Kurtosis (Ideal value: 0), Below left eye / Kurtosis (Ideal value: 0), Left upper arm / Kurtosis (Ideal value: 0), Poll / SEr (Ideal value: Lowest value), Below left eye / SEr (Ideal value: Lowest value), Left upper arm / SEr (Ideal value: Lowest value), Poll / SEsc (Ideal value: Lowest value), Below left eye / SEsc (Ideal value: Lowest value), Left upper arm / SEsc (Ideal value: Lowest value), Poll / SEsm (Ideal value: Lowest value), Below left eye / SEsm (Ideal value: Lowest value), Left upper arm / SEsm (Ideal value: Lowest value), Poll / SWw (Ideal value: Lowest value), Below left eye / SWw (Ideal value: Lowest value), Left upper arm / SWw (Ideal value: Lowest value), Poll: NAG 1,000 mg/day oral; for SEr (Ideal value: Lowest value), Below left eye / SEr (Ideal value: Lowest value), Left upper arm / SEr (Ideal value: Lowest value), Poll: skin roughness; for SEsc (Ideal value: Lowest value), Below left eye / SEsc (Ideal value: Lowest value), Left upper arm / SEsc (Ideal value: Lowest value), Poll: skin scaliness; for SEsm (Ideal value: Lowest value), Below left eye / SEsm (Ideal value: Lowest value), Left upper arm / SEsm (Ideal value: Lowest value), Poll: skin smoothness; for SWw (Ideal value: Lowest value), Below left eye / SWw (Ideal value: Lowest value), Left upper arm / SWw (Ideal value: Lowest value), Poll: skin wrinkles
# Description: as §1, §2, §3
# This analysis was conducted by using a digital analyzer of the skin surface (VISIONSCAN: manufactured by Courage+Khazaka Electronic Gmbh). In use of this apparatus, the skin surface was irradiated with special ultraviolet ray source, and the image is taken by a high performance CCD camera and digitalized for evaluation. The following factors were sampled as parameters.
# This value is calculated from the average of the width and depth of wrinkles by the following formula (i), and one of indices which show the smoothness of skin. The smaller this value is, the smoother the skin surface is. SEsm=(Co−Cu)×(Fmx−Fmy)×K (i) • Fmx: average width of furrows for the row analysis. • Fmy: average width of furrows for the column analysis. • Co: right frontier of the histogram whose calculation is based on a set-up values. • Cu: left frontier of the histogram whose calculation is based on a set-up values. • K: factor
# This value is obtained by calculating the ratio of points darker than the set-up points in the whole image and further calculating by the following formula (ii), and one of indices which show the roughness of skin. The higher the value is, the rougher the skin is. SEr=I/(Nx×Ny)×100 (ii) • I: counter whose start value is 0 and which is incremented each time the gray value of the current point is smaller than the threshold issued from the set-up programs. • Nx: amount of point per row. • Ny: amount of point per column.
# Epidermolysis parts are counted to be brighter than the set-up values in the image. The SEsc value is obtained by calculating the ratio of these parts relative to the entire part by the following formula (iii), and is one of indices which show the dryness of scale (corneum). The lower the value is, the more moist and the less epidermolysis (scale). SEsc=I/(Nx×Ny)×100 (iii) • I: counter whose start value is 0 and which is incremented each time the gray value of the current point is bigger than the threshold issued from the set-up programs. • Nx: amount of point per row. • Ny: amount of point per column.
# The higher the value is, the more the number of wrinkle is and the wider the width of wrinkles is. SEw=Fmx×Fmy/(Fax×Fay)×Fay/Fax×K (iv) • Fax: amount of furrows for the row analysis. • Fmx: average width of furrows for the row analysis. • Fay: amount of furrows for the column analysis. • Fmy: average width of furrows for the column analysis. • K: factor
# The closer to 0 the value is, the smoother in curve the hue point is and the closer to ideal skin.
# [3] = NAG group, 1,000 mg/day oral, 8 weeks
smiles,measurement,setting,value
"CC(=O)N[C@H]1C(O)O[C@H](CO)[C@@H](O)[C@@H]1O (stereo partly drawn) [NAG, N-acetylglucosamine]","Oil and fat content, Below left eye",[1]; after 4 weeks,53.0 ± 29.2
same,"Oil and fat content, Below left eye","[1]; after 8 weeks, p < 0.05",40.8 ± 18.7
same,"Oil and fat content, Below left eye",[1]; before ingestion,63.8 ± 42.3
same,"oil and fat content, change",[1]; [3],significant decrease
same,coloration or decomposition on heat treatment,[2],not to show coloration or decomposition
same,"Kurtosis (Ideal value: 0), Below left eye",skin surface; after 4 weeks,0.34
same,"Kurtosis (Ideal value: 0), Left upper arm",skin surface; after 4 weeks,0.40
same,"Kurtosis (Ideal value: 0), Poll",skin surface; after 4 weeks,0.39
same,"Kurtosis (Ideal value: 0), Below left eye",skin surface; after 8 weeks,0.30
same,"Kurtosis (Ideal value: 0), Left upper arm",skin surface; after 8 weeks,0.50
same,"Kurtosis (Ideal value: 0), Poll",skin surface; after 8 weeks,0.39
same,"Kurtosis (Ideal value: 0), Below left eye",skin surface; before ingestion,0.58
same,"Kurtosis (Ideal value: 0), Left upper arm",skin surface; before ingestion,0.97
same,"Kurtosis (Ideal value: 0), Poll",skin surface; before ingestion,0.79
same,"SEsm value and SEsc value at the poll, change",skin surface; [3],significant decrease
same,"SEr (Ideal value: Lowest value), Below left eye",skin surface; after 4 weeks,0.26
same,"SEr (Ideal value: Lowest value), Left upper arm",skin surface; after 4 weeks,0.22
same,"SEr (Ideal value: Lowest value), Poll",skin surface; after 4 weeks,0.32
same,"SEr (Ideal value: Lowest value), Below left eye",skin surface; after 8 weeks,0.21
same,"SEr (Ideal value: Lowest value), Left upper arm",skin surface; after 8 weeks,0.28
same,"SEr (Ideal value: Lowest value), Poll",skin surface; after 8 weeks,0.40
same,"SEr (Ideal value: Lowest value), Below left eye",skin surface; before ingestion,0.25
same,"SEr (Ideal value: Lowest value), Left upper arm",skin surface; before ingestion,0.30
same,"SEr (Ideal value: Lowest value), Poll",skin surface; before ingestion,0.51
same,"SEsc (Ideal value: Lowest value), Below left eye",skin surface; after 4 weeks,137.0
same,"SEsc (Ideal value: Lowest value), Left upper arm",skin surface; after 4 weeks,195.8
same,"SEsc (Ideal value: Lowest value), Poll",skin surface; after 4 weeks,201.6
same,"SEsc (Ideal value: Lowest value), Below left eye",skin surface; after 8 weeks,133.0
same,"SEsc (Ideal value: Lowest value), Left upper arm",skin surface; after 8 weeks,202.4
same,"SEsc (Ideal value: Lowest value), Poll","skin surface; after 8 weeks, p < 0.05",169.3*
same,"SEsc (Ideal value: Lowest value), Below left eye",skin surface; before ingestion,238.4
same,"SEsc (Ideal value: Lowest value), Left upper arm",skin surface; before ingestion,342.9
same,"SEsc (Ideal value: Lowest value), Poll",skin surface; before ingestion,352.4
same,"SEsm (Ideal value: Lowest value), Below left eye",skin surface; after 4 weeks,337.6
same,"SEsm (Ideal value: Lowest value), Left upper arm",skin surface; after 4 weeks,324.7
same,"SEsm (Ideal value: Lowest value), Poll","skin surface; after 4 weeks, p < 0.05",338.9*
same,"SEsm (Ideal value: Lowest value), Below left eye",skin surface; after 8 weeks,309.4
same,"SEsm (Ideal value: Lowest value), Left upper arm",skin surface; after 8 weeks,379.9
same,"SEsm (Ideal value: Lowest value), Poll","skin surface; after 8 weeks, p < 0.05",345.2*
same,"SEsm (Ideal value: Lowest value), Below left eye",skin surface; before ingestion,378.1
same,"SEsm (Ideal value: Lowest value), Left upper arm",skin surface; before ingestion,384.7
same,"SEsm (Ideal value: Lowest value), Poll",skin surface; before ingestion,443.8
same,"SWw (Ideal value: Lowest value), Below left eye",skin surface; after 4 weeks,29.0
same,"SWw (Ideal value: Lowest value), Left upper arm",skin surface; after 4 weeks,26.4
same,"SWw (Ideal value: Lowest value), Poll",skin surface; after 4 weeks,23.4
same,"SWw (Ideal value: Lowest value), Below left eye",skin surface; after 8 weeks,27.8
same,"SWw (Ideal value: Lowest value), Left upper arm",skin surface; after 8 weeks,31.9
same,"SWw (Ideal value: Lowest value), Poll",skin surface; after 8 weeks,29.5
same,"SWw (Ideal value: Lowest value), Below left eye",skin surface; before ingestion,33.2
same,"SWw (Ideal value: Lowest value), Left upper arm",skin surface; before ingestion,30.2
same,"SWw (Ideal value: Lowest value), Poll",skin surface; before ingestion,27.3
